What was measured:
FGFR1(V561M) = target: T1, FGFR1(V561M) (Homo sapiens, UniProt P11362, V561M); assay: Biochemical kinase assay (Reaction Biology, 33P ATP); settings: 10 μM ATP
T1 construct: purchased Reaction Biology Corporation
Protocol: (§1) Biochemical Kinase Assay Method
(§2) The biochemical kinase assay was performed at Reaction Biology Corporation (www.reactionbiology.com, Malvern, Pa.) following the procedures described in the reference (Anastassiadis T, et al Nat Biotechnol. 2011, 29, 1039). Specific kinase/substrate pairs along with required cofactors were prepared in reaction buffer; 20 mM Hepes pH 7.5, 10 mM MgC2, 1 mM EGTA, 0.02% Brij35, 0.02 mg/ml BSA, 0.1 mM Na3VO4, 2 mM DTT, 1% DMSO. Compounds were delivered into the reaction, followed ˜20 min later by addition of a mixture of ATP (Sigma, St. Louis Mo.) and ^33P ATP (Perkin Elmer, Waltham Mass.) to a final concentration of 10 μM. Reactions were carried out at room temperature for 120 min, followed by spotting of the reactions onto P81 ion exchange filter paper (Whatman Inc., Piscataway, N.J.). Unbound phosphate was removed by extensive washing of filters in 0.75% phosphoric acid. […] IC50 values and curve fits were obtained using Prism (GraphPad Software).

FGFR2 = target: T2, FGFR2 (Homo sapiens, UniProt P21802); assay: as above; settings: 10 μM ATP
T2 construct: purchased Reaction Biology Corporation
Protocol: as §1, §2

FGFR1 = target: T3, FGFR1 (Homo sapiens, UniProt P11362); assay: as above; settings: 10 μM ATP
T3 construct: purchased Reaction Biology Corporation
Protocol: as §1, §2

ALK (G1202R) = target: T4, ALK (G1202R) (Homo sapiens, UniProt Q9UM73, G1202R); assay: as above; settings: 10 μM ATP
T4 construct: purchased Reaction Biology Corporation
Protocol: as §1, §2

FGFR3 = target: T5, FGFR3 (Homo sapiens, UniProt P22607); assay: as above; settings: 10 μM ATP
T5 construct: purchased Reaction Biology Corporation
Protocol: as §1, §2

ALK (L1196M) = target: T6, ALK (L1196M) (Homo sapiens, UniProt Q9UM73, L1196M); assay: as above; settings: 10 μM ATP
T6 construct: purchased Reaction Biology Corporation
Protocol: as §1, §2

ROS1 (G2032R) = target: T7, ROS1 (G2032R) (Homo sapiens, UniProt P08922, G2032R); assay: as above; settings: 10 μM ATP
T7 construct: purchased Reaction Biology Corporation
Protocol: as §1, §2

ALK = target: T8, ALK (Homo sapiens, UniProt Q9UM73); assay: as above; settings: 10 μM ATP
T8 construct: purchased Reaction Biology Corporation
Protocol: as §1, §2

ROS1 = target: T9, ROS1 (Homo sapiens, UniProt P08922); assay: as above; settings: 10 μM ATP
T9 construct: purchased Reaction Biology Corporation
Protocol: as §1, §2

FGFR4 = target: T10, FGFR4 (Homo sapiens, UniProt P22455); assay: as above; settings: 10 μM ATP
T10 construct: purchased Reaction Biology Corporation
Protocol: as §1, §2

KG-1 cell (OP2-FGFR1) = assay: Cell proliferation assay (CellTiter-Glo); assay type: cell-based; settings: Homo sapiens, anti-cell proliferation, 72 hours
How it was run: (§3)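 Cells seeded 24 h, then exposed to compounds for 72 h at 37° C., 5% CO2. Proliferation read by CellTiter-Glo luminescent ATP detection; IC50 from dose-response fits.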

KM12 (TPM3-TRKA) = assay: Cell proliferation assay (CellTiter-Glo); assay type: cell-based; settings: Homo sapiens, anti-cell proliferation, 72 hours
How it was run: as §3

BaF3 EML4-ALK = target: T11, BaF3 EML4-ALK (Homo sapiens, UniProt Q9UM73); assay: Cell proliferation assay (CellTiter-Glo); assay type: cell-based; settings: anti-cell proliferation, 72 hours
T11 construct: The EML4-ALK gene (variant 1) was synthesized at GenScript and cloned into pCDH-CMV-MCS-EF1-Puro plasmid (System Biosciences, Inc); fused on or other part: EML4 N-terminal part (variant 1: exons 1-13, with the coiled-coil that oligomerises the fusion) fused to the intracellular part of ALK, which contains the kinase domain; Q9HC35 (Echinoderm microtubule-associated protein-like 4)
How it was run: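 Ba/F3 cells were lentivirally transduced with EML4-ALK variant 1 and selected for puromycin resistance and IL-3-independent growth. Proliferation was measured by CellTiter-Glo ATP luminescence to give IC50.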

T4 sequence (Q9UM73 19-1620 G1202R): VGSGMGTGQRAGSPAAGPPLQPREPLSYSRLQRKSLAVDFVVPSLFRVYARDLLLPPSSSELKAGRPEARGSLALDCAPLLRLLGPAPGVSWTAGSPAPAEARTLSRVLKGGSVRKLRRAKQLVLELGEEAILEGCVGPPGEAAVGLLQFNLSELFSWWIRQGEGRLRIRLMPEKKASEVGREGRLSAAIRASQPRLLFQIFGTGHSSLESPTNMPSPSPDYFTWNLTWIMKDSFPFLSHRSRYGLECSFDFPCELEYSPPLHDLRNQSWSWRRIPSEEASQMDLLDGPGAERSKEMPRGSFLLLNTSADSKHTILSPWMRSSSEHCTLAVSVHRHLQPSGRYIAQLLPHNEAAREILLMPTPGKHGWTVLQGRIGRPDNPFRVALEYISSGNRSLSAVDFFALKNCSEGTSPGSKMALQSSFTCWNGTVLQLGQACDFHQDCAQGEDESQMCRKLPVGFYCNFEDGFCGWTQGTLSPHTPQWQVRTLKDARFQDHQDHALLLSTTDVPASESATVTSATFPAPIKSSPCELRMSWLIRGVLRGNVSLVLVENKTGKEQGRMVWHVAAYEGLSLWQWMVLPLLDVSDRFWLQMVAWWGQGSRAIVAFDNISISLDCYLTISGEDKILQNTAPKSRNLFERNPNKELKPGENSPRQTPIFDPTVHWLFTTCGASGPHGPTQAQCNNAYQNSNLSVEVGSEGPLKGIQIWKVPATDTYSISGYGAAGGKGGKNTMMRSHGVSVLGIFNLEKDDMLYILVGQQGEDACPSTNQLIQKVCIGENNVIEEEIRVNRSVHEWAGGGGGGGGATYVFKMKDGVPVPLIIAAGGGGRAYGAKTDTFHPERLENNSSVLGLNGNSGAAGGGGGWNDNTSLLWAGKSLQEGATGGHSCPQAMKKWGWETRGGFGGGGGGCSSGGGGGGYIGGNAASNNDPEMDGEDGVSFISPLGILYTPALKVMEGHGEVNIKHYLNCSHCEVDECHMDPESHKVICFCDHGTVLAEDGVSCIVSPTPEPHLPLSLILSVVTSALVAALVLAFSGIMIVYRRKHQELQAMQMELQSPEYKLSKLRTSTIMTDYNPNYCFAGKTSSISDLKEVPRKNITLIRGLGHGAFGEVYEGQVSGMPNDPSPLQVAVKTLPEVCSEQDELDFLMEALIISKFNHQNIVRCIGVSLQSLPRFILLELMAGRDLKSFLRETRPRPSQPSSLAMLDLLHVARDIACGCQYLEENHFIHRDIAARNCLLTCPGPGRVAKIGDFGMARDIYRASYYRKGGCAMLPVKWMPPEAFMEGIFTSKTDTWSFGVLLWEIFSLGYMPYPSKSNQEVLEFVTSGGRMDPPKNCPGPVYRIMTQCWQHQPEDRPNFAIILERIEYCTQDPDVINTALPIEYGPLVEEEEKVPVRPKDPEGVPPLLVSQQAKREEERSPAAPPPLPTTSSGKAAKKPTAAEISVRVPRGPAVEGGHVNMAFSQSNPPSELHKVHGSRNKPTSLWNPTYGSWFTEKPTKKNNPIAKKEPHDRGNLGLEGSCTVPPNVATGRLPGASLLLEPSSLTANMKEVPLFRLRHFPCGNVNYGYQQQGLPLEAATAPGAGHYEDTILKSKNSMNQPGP
T11 sequence (Q9UM73 whole entry, stated change not applied, the tested form may be a part): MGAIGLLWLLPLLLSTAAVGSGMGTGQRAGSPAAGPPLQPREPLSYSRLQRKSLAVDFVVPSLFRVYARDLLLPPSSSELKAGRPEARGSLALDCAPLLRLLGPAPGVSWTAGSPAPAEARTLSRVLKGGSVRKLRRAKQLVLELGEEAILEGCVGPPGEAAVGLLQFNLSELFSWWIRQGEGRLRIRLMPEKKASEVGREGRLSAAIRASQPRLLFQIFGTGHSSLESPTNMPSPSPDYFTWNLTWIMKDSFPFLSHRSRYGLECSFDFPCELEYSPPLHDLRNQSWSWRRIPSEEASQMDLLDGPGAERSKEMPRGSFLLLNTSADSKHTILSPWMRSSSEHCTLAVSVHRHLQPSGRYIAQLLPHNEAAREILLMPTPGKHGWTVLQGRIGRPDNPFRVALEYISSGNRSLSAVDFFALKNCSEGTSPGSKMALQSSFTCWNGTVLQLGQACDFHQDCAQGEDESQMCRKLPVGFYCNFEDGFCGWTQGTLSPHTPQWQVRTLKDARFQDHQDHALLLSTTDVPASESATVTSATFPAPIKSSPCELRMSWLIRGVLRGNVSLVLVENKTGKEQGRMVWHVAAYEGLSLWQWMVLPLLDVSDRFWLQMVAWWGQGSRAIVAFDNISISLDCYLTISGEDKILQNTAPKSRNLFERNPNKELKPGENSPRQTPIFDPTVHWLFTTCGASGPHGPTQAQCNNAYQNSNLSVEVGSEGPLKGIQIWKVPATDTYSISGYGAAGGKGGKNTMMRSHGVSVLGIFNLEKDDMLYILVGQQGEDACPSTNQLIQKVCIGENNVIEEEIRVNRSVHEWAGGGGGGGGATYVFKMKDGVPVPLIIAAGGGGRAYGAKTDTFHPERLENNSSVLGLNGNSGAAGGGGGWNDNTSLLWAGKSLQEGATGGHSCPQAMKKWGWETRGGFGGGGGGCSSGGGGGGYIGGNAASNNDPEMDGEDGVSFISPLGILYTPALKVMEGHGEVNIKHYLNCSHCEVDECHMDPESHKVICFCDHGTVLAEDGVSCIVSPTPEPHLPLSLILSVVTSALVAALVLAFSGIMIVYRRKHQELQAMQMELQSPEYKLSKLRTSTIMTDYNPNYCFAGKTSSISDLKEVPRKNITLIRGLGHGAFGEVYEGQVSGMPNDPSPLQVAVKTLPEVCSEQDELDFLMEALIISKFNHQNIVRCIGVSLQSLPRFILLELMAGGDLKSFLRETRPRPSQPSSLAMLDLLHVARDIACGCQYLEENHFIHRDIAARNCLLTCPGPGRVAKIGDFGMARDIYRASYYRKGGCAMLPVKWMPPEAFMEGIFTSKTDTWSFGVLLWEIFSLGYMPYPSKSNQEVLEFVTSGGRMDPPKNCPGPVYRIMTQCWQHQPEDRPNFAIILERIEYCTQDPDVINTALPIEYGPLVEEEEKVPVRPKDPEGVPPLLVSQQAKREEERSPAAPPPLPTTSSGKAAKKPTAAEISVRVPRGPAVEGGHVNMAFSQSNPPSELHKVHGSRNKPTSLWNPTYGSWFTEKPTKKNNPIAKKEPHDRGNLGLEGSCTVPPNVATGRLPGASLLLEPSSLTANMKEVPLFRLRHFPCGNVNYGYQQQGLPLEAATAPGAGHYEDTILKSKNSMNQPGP
T8 sequence (Q9UM73 19-1620): as the sequence (Q9UM73 19-1620 G1202R) above, with R1184G counted along it
T1 sequence (P11362 22-822 V561M): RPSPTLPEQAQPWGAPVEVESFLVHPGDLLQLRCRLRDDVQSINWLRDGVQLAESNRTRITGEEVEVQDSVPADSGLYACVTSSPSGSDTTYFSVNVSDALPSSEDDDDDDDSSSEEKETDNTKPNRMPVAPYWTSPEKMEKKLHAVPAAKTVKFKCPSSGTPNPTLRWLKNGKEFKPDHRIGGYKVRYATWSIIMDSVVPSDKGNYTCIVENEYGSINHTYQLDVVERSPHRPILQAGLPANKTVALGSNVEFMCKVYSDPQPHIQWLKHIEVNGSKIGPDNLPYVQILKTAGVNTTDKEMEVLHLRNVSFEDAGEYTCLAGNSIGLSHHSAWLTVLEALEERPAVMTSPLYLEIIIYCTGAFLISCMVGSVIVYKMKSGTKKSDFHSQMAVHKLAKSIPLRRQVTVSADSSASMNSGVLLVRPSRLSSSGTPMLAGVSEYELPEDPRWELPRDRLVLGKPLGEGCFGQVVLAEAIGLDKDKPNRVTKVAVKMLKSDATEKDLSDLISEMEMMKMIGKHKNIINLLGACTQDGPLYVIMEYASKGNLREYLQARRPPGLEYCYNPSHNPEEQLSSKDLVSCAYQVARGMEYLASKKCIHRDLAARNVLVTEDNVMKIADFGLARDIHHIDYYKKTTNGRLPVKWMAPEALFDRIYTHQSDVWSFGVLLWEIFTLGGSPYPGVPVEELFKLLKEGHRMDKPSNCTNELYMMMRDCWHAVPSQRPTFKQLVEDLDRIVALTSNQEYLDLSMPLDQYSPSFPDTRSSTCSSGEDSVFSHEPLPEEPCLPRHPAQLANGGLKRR
T5 sequence (P22607 23-806): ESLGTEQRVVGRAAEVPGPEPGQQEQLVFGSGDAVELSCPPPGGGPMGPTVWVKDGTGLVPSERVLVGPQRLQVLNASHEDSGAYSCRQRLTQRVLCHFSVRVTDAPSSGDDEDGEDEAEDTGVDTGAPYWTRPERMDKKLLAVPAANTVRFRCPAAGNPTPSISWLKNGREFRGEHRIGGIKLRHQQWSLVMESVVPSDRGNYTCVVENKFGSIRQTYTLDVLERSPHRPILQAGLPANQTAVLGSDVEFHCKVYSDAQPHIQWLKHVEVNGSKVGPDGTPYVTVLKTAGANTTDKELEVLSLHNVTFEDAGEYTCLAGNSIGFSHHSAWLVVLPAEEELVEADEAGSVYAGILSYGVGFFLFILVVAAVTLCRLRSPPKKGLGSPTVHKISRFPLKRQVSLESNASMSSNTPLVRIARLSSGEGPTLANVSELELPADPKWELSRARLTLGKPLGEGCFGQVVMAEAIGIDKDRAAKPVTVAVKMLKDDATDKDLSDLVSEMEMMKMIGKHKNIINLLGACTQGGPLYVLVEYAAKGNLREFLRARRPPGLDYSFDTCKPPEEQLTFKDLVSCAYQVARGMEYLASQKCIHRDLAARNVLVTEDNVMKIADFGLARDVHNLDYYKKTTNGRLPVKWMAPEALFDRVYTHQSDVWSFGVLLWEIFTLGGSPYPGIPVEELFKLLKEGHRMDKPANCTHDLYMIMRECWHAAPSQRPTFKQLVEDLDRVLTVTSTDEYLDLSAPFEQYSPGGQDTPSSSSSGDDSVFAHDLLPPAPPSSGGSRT
T3 sequence (P11362 22-822): as the sequence (P11362 22-822 V561M) above, with M540V counted along it
T6 sequence (Q9UM73 19-1620 L1196M): as the sequence (Q9UM73 19-1620 G1202R) above, with L1178M, R1184G counted along it

- IC50 (FGFR1(V561M)): 137 nM
- IC50 (FGFR2): 14.7 nM
- IC50 (FGFR1): 53 nM
- IC50 (ALK (G1202R)): 1.25 nM
- IC50 (FGFR3): 30.5 nM
- IC50 (ALK (L1196M)): 0.358 nM
- IC50 (ROS1 (G2032R)): 0.678 nM
- IC50 (ALK): 0.853 nM
- IC50 (ROS1): 0.111 nM
- IC50 (FGFR4): 88.4 nM
- IC50 (BaF3 EML4-ALK): 18.6 nM
Compound: C[C@@H]1COc2cn3ncc4c3nc2N1Cc1cc(F)cc(F)c1O[C@@H](C)CNC4=O [Compound 7, (4R,12S)-8,10-difluoro-4,12-dimethyl-3,4,13,14-tetrahydro-6H-18,1-(metheno)[1,4]oxazino[3,4-i]pyrazolo[4,3-f][1,4,8,10]benzoxatriazacyclotridecin-15(12H)-one]
- IC50 (KG-1 cell (OP2-FGFR1)): 145 nM
- IC50 (KM12 (TPM3-TRKA)): 0.2 nM

From patent publication US20210087206A1, “MACROCYCLIC KINASE INHIBITORS AND THEIR USE” (TURNING POINT THERAPEUTICS, INC., priority 2017, published 2021)
